Results: patent US20030199699A1, “3-(4,5-Dihydroisoxaxol-5-yl)benzoylcyclohexenones and the use thereof as herbicides” (priority 2000, published 2003)

What was measured:
redroot pigweed = test: greenhouse herbicidal test, pre-emergence; format: in vivo, Amaranthus retroflexus; details: 125 or 62.5 g/ha
Excerpt: (§1) The culture containers used were plastic flower pots containing loamy sand with approximately 3.0% of humus as substrate. The seeds of the test plant were sown separately for each species.
(§2) For the pre-emergence treatment, the active ingredients, which were suspended or emulsified in water, were applied directly after sowing by means of finely distributing nozzles. The containers were irrigated gently to promote germination and growth and subsequently covered with transparent plastic hoods until the plants had rooted. This cover caused uniform germination of the test plants unless this was adversely affected by the active ingredients.
(§3) Depending on the species, the plants were kept at temperatures of from 10 to 25° C. or from 20 to 35° C. The test period extended over 2 to 4 weeks. During this time, the plants were tended, and their response to the individual treatments was evaluated.
(§4) Evaluation was carried out using a scale of from 0 to 100. 100 means no emergence of the plants, or complete destruction of at least the aerial parts, and 0 means no damage or normal course of growth.
(§5) The plants used in the greenhouse experiments belonged to the following species: […]

hairy fingergrass = test: greenhouse herbicidal test, pre-emergence; format: in vivo, Digitaria sanguinalis; details: 125 or 62.5 g/ha
Excerpt: as §1, §2, §3, §4, §5

lambsquarters = test: greenhouse herbicidal test, pre-emergence; format: in vivo, Chenopodium album; details: 125 or 62.5 g/ha
Excerpt: as §1, §2, §3, §4, §5

black nightshade = test: greenhouse herbicidal test, pre-emergence; format: in vivo, Solanum nigrum; details: 125 or 62.5 g/ha
Excerpt: as §1, §2, §3, §4, §5

melting point: 135 to 140 °C
SMILES: CC1=NOC(c2c(S(C)(=O)=O)ccc(C(=O)C3=C(O)CCCC3=O)c2C)C1 (centres unmarked) [Compound 2.5, 2-[2-Methyl-3-(3-methyl-4,5-dihydroisoxazol-5-yl)-4-methylsulfonylbenzoyl]-1-hydroxycyclohex-1-en-3-one]
herbicidal action against redroot pigweed (redroot pigweed): highly efficiently | herbicidal action against hairy fingergrass (hairy fingergrass): highly efficiently | herbicidal action against lambsquarters (lambsquarters): highly efficiently | herbicidal action against black nightshade (black nightshade): highly efficiently
